Experimental data published in patent EP0443598A2, “Peptides inhibiting the blood coagulation, their process of preparation and their use” (BEHRINGWERKE Aktiengesellschaft, priority 1990, dated 1991).

Tested on: Standard Humanplasma
Experiment: partial thromboplastin time (PTT) test
Format: biochemical, Human
Conditions: blank without peptide 38.8
Description: 10 mg des Peptids wurden in 1 ml Puffer (20 mM Tris, 150 mM NaCl pH 7.5) gelöst. Das Peptid wurde in der partiellen Thromboplastinzeit (PTT) gegenüber einem Peptid mit derselben Sequenz getestet, das anstelle von Phe(SO₃ H) jedoch Tyr enthielt.
100 Mikroliter Standard Humanplasma 100 Mikroliter Puffer (s.o.) 100 Mikroliter Kaolin/Pathromtin Reagenz (BEHRINGWERKE AG) 2 Minuten bei 37°C 100 Mikroliter CaCl₂-Lösung

[1] = Verdünnung 1:4 of peptide solution 10 mg in 1 ml buffer (20 mM Tris, 150 mM NaCl pH 7.5)
[2] = Verdünnung 1:8 of peptide solution 10 mg in 1 ml buffer
[3] = Verdünnung 1:16 of peptide solution 10 mg in 1 ml buffer
[4] = Verdünnung 1:32 of peptide solution 10 mg in 1 ml buffer
[5] = Verdünnung 1:64 of peptide solution 10 mg in 1 ml buffer
[6] = Verdünnung 1:128 of peptide solution 10 mg in 1 ml buffer
[7] = Verdünnung 1:256 of peptide solution 10 mg in 1 ml buffer
[8] = Verdünnung 1:512 of peptide solution 10 mg in 1 ml buffer
[9] = Verdünnung 1:1024 of peptide solution 10 mg in 1 ml buffer

| Substance | Gerinnungszeiten in Sekunden [1] | Gerinnungszeiten in Sekunden [2] | Gerinnungszeiten in Sekunden [3] | Gerinnungszeiten in Sekunden [4] | Gerinnungszeiten in Sekunden [5] | Gerinnungszeiten in Sekunden [6] | Gerinnungszeiten in Sekunden [7] | Gerinnungszeiten in Sekunden [8] | Gerinnungszeiten in Sekunden [9] |
| --- | --- | --- | --- | --- | --- | --- | --- | --- | --- |
| Asn-Gly-Asp-Phe-Glu-Glu-Ile-Pro-Glu-Glu-Phe(SO₃H)-Leu-OH [Peptid lt. Beispiel] | 147.2 Sekunden | 111.8 Sekunden | 89.2 Sekunden | 81.5 Sekunden | 72.8 Sekunden | 63.0 Sekunden | 56.3 Sekunden | 52.2 Sekunden | 46.8 Sekunden |
| Asn-Gly-Asp-Phe-Glu-Glu-Ile-Pro-Glu-Glu-Tyr-Leu-OH (NGDFEEIPEEYL; printed: Asn-Gly-Asp-Phe-Glu-Glu-Ile-Pro-Glu-Glu-Tyr-Leu-) [Peptid mit Tyr] | 105.2 Sekunden | 80.5 Sekunden | 71.0 Sekunden | 65.0 Sekunden | 57.7 Sekunden | 52.8 Sekunden | 47.3 Sekunden | 44.7 Sekunden | 41.7 Sekunden |
